According to PMC5045712 (Bioorganic & medicinal chemistry, 2016):

Columns and labels:
[1] = target: T1, B. anthracis DHOase (Bacillus anthracis, UniProt Q81WF0); details: cited from earlier work
[2] = target: WT-DHOase (B. anthracis DHOase) (Bacillus anthracis, UniProt Q81WF0); format: biochemical
[3] = test system: E. coli DHOase; details: cited from earlier work
[4] = target: T1, B. anthracis DHOase; format: binding; details: for KD (equilibrium dissociation constant determined by SPR): 25 °C
[5] = target: T1, B. anthracis DHOase; format: binding

T1 sequence (Q81WF0 whole entry, looked up): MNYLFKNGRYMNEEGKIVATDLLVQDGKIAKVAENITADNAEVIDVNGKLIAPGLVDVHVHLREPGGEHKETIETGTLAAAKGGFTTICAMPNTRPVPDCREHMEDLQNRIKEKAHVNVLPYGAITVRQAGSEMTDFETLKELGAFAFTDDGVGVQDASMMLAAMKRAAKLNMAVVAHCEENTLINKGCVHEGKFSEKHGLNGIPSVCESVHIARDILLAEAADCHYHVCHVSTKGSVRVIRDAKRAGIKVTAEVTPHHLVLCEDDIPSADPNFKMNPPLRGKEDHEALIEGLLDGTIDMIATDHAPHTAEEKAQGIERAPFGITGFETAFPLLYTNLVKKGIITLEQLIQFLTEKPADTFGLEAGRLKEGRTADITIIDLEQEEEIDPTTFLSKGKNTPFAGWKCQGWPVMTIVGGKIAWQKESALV
Sequence of WT-DHOase (B. anthracis DHOase) (Q81WF0 whole entry, looked up): as above

## Nc1c(C(=O)O)[nH]c(=O)[nH]c1=O [5-aminoorotate (AOA), 5-aminoorotate]
[1]
  inhibition of B. anthracis DHOase: no inhibition

## O=C(O)c1[nH]c(=O)[nH]c(=O)c1F [5-fluoroorotate (FOA), 5-fluoroorotate]
[1]
  inhibition of B. anthracis DHOase: no inhibition

## NC(=O)N[C@@H](CC(=O)O)C(=O)O [Ca-asp, carbamyl-asparate]
[2]
  Km: 112 ± 24 µM
  kcat: 2.1 ± 0.1 s⁻¹
[3]
  Km: 1700 µM
  kcat: 160 ± 8 s⁻¹

## CCC(=O)Nc1ccc(OC)cc1OC [Compound 4]
[4]
  KD with 1 mM Ca-asp: remained the same
[5]
  shift in melting temperature (Tm): shows a shift in melting temperature

## COc1ccc2[nH]c3c(c2c1)CCNC3 [Compound 6a]
[4]
  KD with 1 mM Ca-asp: not affected
  fold change of KD relative to compound 6: ~ 1.5 fold

## Cc1ccc2[nH]c3c(c2c1)CCNC3 [Compound 6b]
[4]
  KD (equilibrium dissociation constant determined by SPR): completely abolished

## COc1ccc2[nH]c(CN)cc2c1 [Compound 6c]
[4]
  KD (equilibrium dissociation constant determined by SPR): no interaction

## CSC1(NC#N)NCCc2c1[nH]c1ccc(F)cc21 (stereo not shown) [Compound 7]
[4]
  KD with 1 mM Ca-asp: unable to be determined

## COc1ccc2[nH]c3c(c2c1)CCNC3(NC#N)SC (stereo not shown) [Compound 7a]
[4]
  fold change of KD relative to compound 6: 18 fold

## COc1ccc2[nH]c3c(c2c1)CN(C(C)=O)CC3 [Compound 8]
[4]
  KD (equilibrium dissociation constant determined by SPR): weaker

## O=C1CC(C(=O)O)NC(=O)N1 (stereo not shown) [DHO, dihydroorotate]
[2]
  Km: 114 ± 16 µM
  kcat: 1.9 ± 0.1 s⁻¹
[3]
  Km: 80 µM
  kcat: 100 ± 1.6 s⁻¹
